Data published in US20090088380A1, “GHRH ANALOGS AND THERAPEUTIC USES THEREOF” (priority 2007, published 2009).
Values joined by “and” are separate entries in the source; they are usually repeats but may differ in a detail not shown here. Identical values can stand only once. Non-standard residues stand in square brackets, D forms with d. Residues, ends and D or L forms follow the SMILES beside them.

Columns and labels:
[1] = system: Salmonella strains, Chinese Hamster Ovary cells, erythrocyte micronucleus test; assay: Mutagenicity tests
endogenous GH secretion = assay: Phase II CKD: 24-hour GH profile and deconvolution; format: in vivo, human
Experimental: Blood samples for assessment of GH secretion had to be taken over 24 hours because the release of endogenous GH was pulsatile and not consistent throughout the day. Much of endogenous GH release is closely coupled to periods of slow-wave sleep, and the bulk of GH secretion usually occurs between midnight and 4 am. […] To document clearly the effect of the GHRH(1-29)NH2 synthetic analog on endogenous GH secretion, the following protocol had been designed: first, baseline endogenous GH secretion was assessed on Day 0 by sampling blood every 20 minutes for 20 hours and every 10 minutes for 4 hours. At the end of this sampling period (in the afternoon of Day 1), the first injection of the GHRH(1-29)NH2 synthetic analog was given. At the end of the 4-week treatment period (Day 28), GH secretion was reassessed by another 24-hour secretion profile. This profile started at 8:30 am with the morning injection of the GHRH(1-29)NH2 synthetic analog. Blood was collected every 10 minutes for the first 4 hours, followed by sampling every 20 minutes for the next 20 hours; this period included the afternoon injection of the GHRH(1-29)NH2 synthetic analog. In this way, it was possible to assess the evolution of both the pituitary's immediate GHRH response and that of time-integrated 24-hour GH secretion over extended treatment.
On Day 0 (baseline) and Day 28, subjects commenced 24-hour sampling at 10 and 20-minute intervals to construct a GH profile. […] The cannula was flushed with heparin-saline solution after each blood withdrawal to prevent clotting. Immediately before each blood collection, the residual heparin-saline volume instilled in the cannula was withdrawn with 0.5 mL blood in a separate syringe. This volume was reinjected after collection of the sample used for GH analysis.
At the baseline visit, blood sampling for the 24-hour GH profile commenced on Day 0 by taking samples at 20-minute intervals for 20 hours. Immediately at the end of this period, on the morning of Day 1, samples were taken at 10-minute intervals for 4 hours. The first dose of investigational product was not given before the end of the 24-hour GH profile period. On Day 28, samples were taken pre-dose, at 10-minute intervals for the first 4 hours (at the same time of day as the 4-hour period on Day 1) and at 20-minute intervals thereafter for a further 20 hours.
Samples were analysed for GH at the Department of Nephrology, Endocrinology and Metabolic Diseases, Silesian University School of Medicine, Katowice, Poland using a commercial kit.

[2] = system: IGF-1, IGFBP-1 and IGFBP-3; assay: Phase II CKD: total IGF-1, IGFBP-1 and IGFBP-3; format: in vivo, human; settings: day 42
[3] = system: malnourished subjects with CKD; assay: Phase II CKD: abnormal and clinically significant haematology values; format: in vivo, human; settings: for Subjects with abnormal and clinically significant Basophils (%) / Subjects with abnormal and clinically significant Eosinophils (%) / Subjects with abnormal and clinically significant Haematocrit (%) / Subjects with abnormal and clinically significant Haemoglobin (%) / Subjects with abnormal and clinically significant Lymphocytes (%) / Subjects with abnormal and clinically significant MCV (%) / Subjects with abnormal and clinically significant Monocytes (%) / Subjects with abnormal and clinically significant Neutrophils (%) / Subjects with abnormal and clinically significant Platelet count (%) / Subjects with abnormal and clinically significant RBC (%) / Subjects with abnormal and clinically significant WBC (%): safety analysis set
Source text: The number of subjects with abnormal and clinically significant laboratory values at baseline and at Day 28 is presented in Table 35 (haematology) and Table 36 clinical chemistry. Overall, the number of subjects with abnormal and clinically significant laboratory values was similar in the GHRH(1-29)NH2 synthetic analog and placebo groups. No clear trends were observed.

[4] = GH deconvolution, ITT, Baseline
[5] = GH deconvolution, ITT, Day 28, vs placebo

CC[C@H](C)[C@H](NC(=O)[C@H](C)NC(=O)[C@H](CC(=O)O)NC(=O)[C@@H](C)NC(=O)[C@@H](N)Cc1ccc(O)cc1)C(=O)N[C@@H](Cc1ccccc1)C(=O)N[C@H](C(=O)N[C@@H](CC(N)=O)C(=O)N[C@@H](CO)C(=O)N[C@H](Cc1ccc(O)cc1)C(=O)N[C@@H](CCCNC(=N)N)C(=O)N[C@@H](CCCCN)C(=O)N[C@H](C(=O)N[C@@H](CC(C)C)C(=O)N[C@H](C)C(=O)N[C@@H](CCC(N)=O)C(=O)N[C@@H](CC(C)C)C(=O)N[C@@H](CO)C(=O)N[C@@H](C)C(=O)N[C@@H](CCCNC(=N)N)C(=O)N[C@@H](CCCCN)C(=O)N[C@@H](CCCCN)C(=O)N[C@@H](CC(C)C)C(=O)N[C@@H](CCC(N)=O)C(=O)N[C@@H](CC(=O)O)C(=O)N[C@H](C(=O)N[C@@H](CCSC)C(=O)N[C@@H](CO)C(=O)N[C@@H](CCCNC(=N)N)C(N)=O)[C@@H](C)CC)C(C)C)[C@@H](C)O [GHRH analog #5, [D-Ala^2, D-Tyr^10, D-Ala^15, Lys^22] hGHRH(1-29)-NH2] (H-Y[dA]DAIFTNS[dY]RKVL[dA]QLSARKKLQDIMSR-NH2)
Clastogenicity [1]: not a clastogenic agent
Mutagenicity ([1]; Salmonella strains, CHO cells, erythrocyte micronucleus test): no evidence of mutagenicity
1st component half-life: median (endogenous GH secretion; [4]): 6 min
2nd component half-life: median (endogenous GH secretion; [4]): 16 min
% pulsatile secretion rate: mean (SD) (endogenous GH secretion; [4]): 79.02 (9.09) %
Basal secretion rate: median (endogenous GH secretion; [4]): 27 mU/L/24 h
Inter-pulse regularity: mean (SD) (endogenous GH secretion; [4]): 2.35 (0.63)
Mass per pulse: mean (SD) (endogenous GH secretion; [4]): 11.30 (7.02) mU/L
Mean pulse frequency (per 24 h): mean (SD) (endogenous GH secretion; [4]): 8.09 (2.81) per 24 h
Number of pulses: mean (SD) (endogenous GH secretion; [4]): 8.8 (3.2)
Pulsatile secretion rate: median (endogenous GH secretion; [4]): 100 mU/L/24 h
Time from onset to peak of burst: mean (SD) (endogenous GH secretion; [4]): 32.8 (3.9) min
Total secretion rate: median (endogenous GH secretion; [4]): 120 mU/L/24 h
1st component half-life: median (endogenous GH secretion; GH deconvolution, ITT, Day 28): 2 min
2nd component half-life: comparison vs placebo (endogenous GH secretion; GH deconvolution, ITT, Day 28): 4.8
2nd component half-life: median (endogenous GH secretion; GH deconvolution, ITT, Day 28): 26 min
% pulsatile secretion rate: comparison vs placebo (endogenous GH secretion; GH deconvolution, ITT, Day 28): −0.4
% pulsatile secretion rate: mean (SD) (endogenous GH secretion; GH deconvolution, ITT, Day 28): 71.27 (16.24) %
Basal secretion rate: median (endogenous GH secretion; GH deconvolution, ITT, Day 28): 98 mU/L/24 h
Inter-pulse regularity: comparison vs placebo (endogenous GH secretion; GH deconvolution, ITT, Day 28): −0.0
Inter-pulse regularity: mean (SD) (endogenous GH secretion; GH deconvolution, ITT, Day 28): 1.95 (0.30)
Mass per pulse: comparison vs placebo (endogenous GH secretion; GH deconvolution, ITT, Day 28): 26.5
Mass per pulse: mean (SD) (endogenous GH secretion; GH deconvolution, ITT, Day 28): 43.88 (36.16) mU/L
Mean pulse frequency (per 24 h): mean (SD) (endogenous GH secretion; GH deconvolution, ITT, Day 28): 9.07 (3.49) per 24 h
Mean pulse frequency: comparison vs placebo (endogenous GH secretion; GH deconvolution, ITT, Day 28): 0.8
Number of pulses: comparison vs placebo (endogenous GH secretion; GH deconvolution, ITT, Day 28): 0.3
Number of pulses: mean (SD) (endogenous GH secretion; GH deconvolution, ITT, Day 28): 9.7 (3.7)
Pulsatile secretion rate: median (endogenous GH secretion; GH deconvolution, ITT, Day 28): 378 mU/L/24 h
Time from onset to peak of burst: comparison vs placebo (endogenous GH secretion; GH deconvolution, ITT, Day 28): −4.5
Time from onset to peak of burst: mean (SD) (endogenous GH secretion; GH deconvolution, ITT, Day 28): 27.3 (4.7) min
Total secretion rate: median (endogenous GH secretion; GH deconvolution, ITT, Day 28): 495 mU/L/24 h
Basal secretion rate: comparison or ratio of means (endogenous GH secretion; [5]): 2.53
Pulsatile secretion rate: comparison or ratio of means (endogenous GH secretion; [5]): 2.81
Total secretion rate: comparison or ratio of means (endogenous GH secretion; [5]): 2.72
GH AUC first 4 hours: increase from baseline to day 28 (endogenous GH secretion; ITT): 1137%
GH AUC at 4 h: median (endogenous GH secretion; ITT, Baseline): 315 μIU/mL × min
GH AUC at 24 h: median (endogenous GH secretion; ITT, Baseline): 3473 μIU/mL × min
GH SD at 4 h: median (endogenous GH secretion; ITT, Baseline): 1.0 μIU/mL
GH SD at 24 h: median (endogenous GH secretion; ITT, Baseline): 2.9 μIU/mL
GH concentration at 4 h: median (endogenous GH secretion; ITT, Baseline): 1.3 μIU/mL
GH concentration at 24 h: median (endogenous GH secretion; ITT, Baseline): 2.1 μIU/mL
Mean concentration of GH secreted during the first 4 hours (endogenous GH secretion; ITT, Baseline): 1.72 μIU/ml
GH AUC at 4 h: median (endogenous GH secretion; ITT, Day 28): 3891 μIU/mL × min
GH AUC at 24 h: difference vs placebo (endogenous GH secretion; ITT, Day 28): 11585 μIU/mL × min
GH AUC at 24 h: median (endogenous GH secretion; ITT, Day 28): 16753 μIU/mL × min
GH SD at 4 h: median (endogenous GH secretion; ITT, Day 28): 11.6 μIU/mL
GH SD at 24 h: median (endogenous GH secretion; ITT, Day 28): 13.3 μIU/mL
GH concentration at 4 h: median (endogenous GH secretion; ITT, Day 28): 16.2 μIU/mL
GH concentration at 24 h: comparison vs placebo (endogenous GH secretion; ITT, Day 28): 9.5
GH concentration at 24 h: median (endogenous GH secretion; ITT, Day 28): 12.5 μIU/mL
GH AUC at 4 h: ratio (endogenous GH secretion; ITT, Day 28, vs placebo): 9.5 and 9.49
GH SD at 4 h: comparison or ratio of means (endogenous GH secretion; ITT, Day 28, vs placebo): 6.97
GH SD at 24 h: comparison or ratio of means (endogenous GH secretion; ITT, Day 28, vs placebo): 3.92
GH concentration at 4 h: ratio (endogenous GH secretion; ITT, Day 28, vs placebo): 9.50
Mean GH concentration first 4 hours: increase (endogenous GH secretion; ITT, baseline to day 28): 1136%
Mean concentration of GH secreted during the first 4 hours (endogenous GH secretion; ITT, day 28): 21.26 μIU/ml
Mean amount of GH secreted in 24 hours (AUC) (endogenous GH secretion; baseline): 3770.62 μIU/ml×min
Mean basal GH secretion rate (endogenous GH secretion; baseline): 26.9 mU/L/24 h
Mean concentration of GH (endogenous GH secretion; baseline): 2.49 μIU/ml
Mean 24-hour GH AUC: increase (endogenous GH secretion; baseline to day 28): 393%
Mean amount of GH secreted in 24 hours (AUC) (endogenous GH secretion; day 28): 18579.9 μIU/ml×min
Median IGF-1 after treatment discontinuation [2]: 368.2 ng/mL
Subjects with abnormal and clinically significant Basophils (%) ([3]; Baseline): (0.0%)
Subjects with abnormal and clinically significant Eosinophils (%) ([3]; Baseline): (0.0%)
Subjects with abnormal and clinically significant Haematocrit (%) ([3]; Baseline): (7.7%)
Subjects with abnormal and clinically significant Haemoglobin (%) ([3]; Baseline): (23.1%)
Subjects with abnormal and clinically significant Lymphocytes (%) ([3]; Baseline): (0.0%)
Subjects with abnormal and clinically significant MCV (%) ([3]; Baseline): (0.0%)
Subjects with abnormal and clinically significant Monocytes (%) ([3]; Baseline): (7.7%)
Subjects with abnormal and clinically significant Neutrophils (%) ([3]; Baseline): (7.7%)
Subjects with abnormal and clinically significant Platelet count (%) ([3]; Baseline): (0.0%)
Subjects with abnormal and clinically significant RBC (%) ([3]; Baseline): (7.7%)
Subjects with abnormal and clinically significant WBC (%) ([3]; Baseline): (0.0%)
Number of subjects with abnormal and clinically significant haematocrit ([3]; Day 28): 4 subjects
Subjects with abnormal and clinically significant Basophils (%) ([3]; Day 28): (0.0%)
Subjects with abnormal and clinically significant Eosinophils (%) ([3]; Day 28): (0.0%)
Subjects with abnormal and clinically significant Haematocrit (%) ([3]; Day 28): (33.3%)
Subjects with abnormal and clinically significant Haemoglobin (%) ([3]; Day 28): (41.7%)
Subjects with abnormal and clinically significant Lymphocytes (%) ([3]; Day 28): (0.0%)
Subjects with abnormal and clinically significant MCV (%) ([3]; Day 28): (0.0%)
Subjects with abnormal and clinically significant Monocytes (%) ([3]; Day 28): (8.3%)
Subjects with abnormal and clinically significant Neutrophils (%) ([3]; Day 28): (16.7%)
Subjects with abnormal and clinically significant Platelet count (%) ([3]; Day 28): (0.0%)
Subjects with abnormal and clinically significant RBC (%) ([3]; Day 28): (25.0%)
Subjects with abnormal and clinically significant WBC (%) ([3]; Day 28): (0.0%)
Number of subjects with abnormal and clinically significant haematocrit ([3]; baseline): 1 subject
